In brackets after ≈: the same amount, converted by molar mass.
conditions: buffer; pH 7.4; 200.0 µM

Row | Structure (SMILES) | solubility kinetic
1 | COc1ccc(N(C)C(=O)c2sc(Cl)nc2C)cc1 | 42.7 µg/mL (≈ 144 µM)
2 | Cc1cc(C(=O)N2CCc3ccccc3C2)c(C)o1 | > 38.3 µg/mL
3 | O=S(=O)(Nc1ccc2c(c1)OCCO2)c1ccc(F)c(F)c1 | > 49.1 µg/mL
4 | CC1CCCCC12NC(=O)N(Cc1cc(=O)n3ccsc3n1)C2=O (stereo unspecified) | > 52 µg/mL
5 | CCCCOc1ccc(-c2ncc(N)cn2)cc1 | 24.2 µg/mL (≈ 99.5 µM)
6 | COc1ccc(OC)c(N(CC(=O)N2CCOCC2)S(C)(=O)=O)c1 | > 53.8 µg/mL
7 | O=C(COC(=O)c1cccc(F)c1)NC(=O)NC1CCCC1 | 41.4 µg/mL (≈ 134 µM)
8 | O=C(CN1CCN(c2cccc(Cl)c2)CC1)NCc1ccccc1 | 42.5 µg/mL (≈ 124 µM)
9 | Cc1ccc(NC(=O)NC2CCCCCCC2)c(C)c1 | < 0.3 µg/mL
10 | CCCC(=O)OCC(=O)Nc1ccc2[nH]c(=O)[nH]c2c1 | > 41.6 µg/mL
11 | N#Cc1ccccc1OCC(=O)Nc1ccccc1C(=O)NC1CC1 | 48.3 µg/mL (≈ 144 µM)
12 | O=C(CSc1nnc(-c2ccccn2)o1)Nc1ccccc1 | > 46.9 µg/mL
13 | Cc1cc(Oc2ccc(N)cn2)cc(C)c1Cl | 27.6 µg/mL (≈ 111 µM)
14 | COc1ccc(OC)c(NC(=O)CS(=O)(=O)Cc2ccccc2)c1 | 3.1 µg/mL (≈ 8.87 µM)
15 | O=C(CCNS(=O)(=O)c1ccc(F)c(F)c1)NCCN1CCOCC1 | > 56.6 µg/mL
16 | Cc1ccc(NC(=S)N2CCCC2)cc1C | > 35.2 µg/mL
17 | FC(F)Oc1cccc(NC(=S)N2CCN(c3ccccn3)CC2)c1 | 2.3 µg/mL (≈ 6.31 µM)
18 | CCOC(=O)c1ccc2c(c1)N(CC#N)C(=O)C(C)(C)O2 | > 43.2 µg/mL
19 | Cc1ccc(N2C(=O)CC(Cc3cc(C)cc(C)c3)C2=O)cc1 (stereo unspecified) | 8.8 µg/mL (≈ 28.6 µM)
20 | CC(NC(=O)C(=S)N1CCN(C)CC1)c1ccccc1 (stereo unspecified) | > 43.7 µg/mL
21 | Cc1ccc(NC(=O)c2ccc(S(=O)(=O)N3CCOCC3)cc2)c(C)c1 | 5.2 µg/mL (≈ 13.9 µM)

Row | Structure (SMILES) | solubility kinetic
22 | Cc1csc(SCC(=O)NCc2ccccc2)n1 | > 41.8 µg/mL
23 | CN(C)c1c(N)c(=O)oc2ccccc12 | 27.3 µg/mL (≈ 134 µM)
24 | CSCCC(NC(=O)c1ccco1)C(=O)NCC1CCCCC1 (stereo unspecified) | > 50.8 µg/mL
25 | Cc1ccc(N2C(=O)CC(C)CC2=O)cc1 | > 32.6 µg/mL
26 | Cc1cc(C(=O)Nc2ccc(F)cc2C)n(-c2ccccc2)n1 | > 46.4 µg/mL
27 | Cc1cccc(NC(=O)c2ccc3c(c2)OCCO3)c1 | 35.5 µg/mL (≈ 132 µM)
28 | COc1cc(NC(=O)Cc2ccccc2)c(C(=O)O)cc1OC | 43.5 µg/mL (≈ 138 µM)
29 | CC(=O)N(C1=NCCCS1)c1ccccc1Cl | > 40.3 µg/mL
30 | CCN(CC)S(=O)(=O)c1cccc(NC2=NCCCCC2)c1 | 46.8 µg/mL (≈ 145 µM)
31 | Cc1nc(C(F)(F)F)ccc1C(=O)NCC(O)c1ccccc1 (stereo unspecified) | > 48.6 µg/mL
32 | O=C(Nc1nccs1)c1ccc(Br)cc1 | 2.2 µg/mL (≈ 7.77 µM)
33 | CSc1nc(-c2ccccc2)nc(NC(=O)C(C)C)c1C(C)=O | 0.8 µg/mL (≈ 2.43 µM)
34 | CCOCCCNC(=O)c1cc2c(s1)-c1ccccc1SC2 | 27.6 µg/mL (≈ 82.8 µM)
35 | CC(=O)NCC(=O)NNC1CC(=O)N(c2cccc(Cl)c2)C1=O (stereo unspecified) | > 50.8 µg/mL
36 | COc1ccc(CCNC(=O)c2cc(C)oc2C)cc1OC | 42 µg/mL (≈ 138 µM)
37 | O=C(Nc1ccc(Cl)cn1)c1cc2c(s1)-c1ccccc1OC2 | < 0.4 µg/mL
38 | Cc1nc(-c2ccccc2)[nH]c(=O)c1Oc1ccc(Cl)cc1Cl | < 0.4 µg/mL
39 | COc1ccccc1Oc1ccccc1[N+](=O)[O-] | 25.1 µg/mL (≈ 102 µM)
40 | Cc1ccnc(SCc2ccc([N+](=O)[O-])cc2)n1 | 29.7 µg/mL (≈ 114 µM)
41 | Nc1cc(N)nc(SCC(=O)NCCC2=CCCCC2)n1 | > 46.1 µg/mL
42 | O=C(COc1ccc([N+](=O)[O-])cc1)NCCc1nc2ccccc2[nH]1 | 8.5 µg/mL (≈ 25 µM)

Row | Structure (SMILES) | solubility kinetic
43 | O=C(c1ccccc1)N1CCCCC(Cl)C1=O (stereo unspecified) | > 37.8 µg/mL
44 | CSc1ccc(CN(C)C(=O)c2cc3ccccc3o2)cc1 | 10.3 µg/mL (≈ 33.1 µM)
45 | O=C(CN1c2cccc3cccc(c23)S1(=O)=O)N1CCN(c2ccccc2)CC1 | 3.4 µg/mL (≈ 8.34 µM)
46 | COc1cccc(CNC(=O)COC(=O)c2c(NC(C)=O)sc(C)c2C)c1 | 1.9 µg/mL (≈ 4.87 µM)
47 | CN1CCC(N(C)C(=O)c2ccc(Cl)c(S(=O)(=O)N3CCc4ccccc43)c2)CC1 | > 67.2 µg/mL
48 | CCOc1ccccc1NC(=O)c1ccccc1-c1ccccc1 | 8.5 µg/mL (≈ 26.8 µM)
49 | COc1ccc(NC(=O)NCc2ccccn2)c(OC)c1 | 42.1 µg/mL (≈ 147 µM)
50 | Cn1nc(C(F)(F)F)c2cc(C(=O)N3CCOCC3)sc21 | > 47.9 µg/mL
51 | COc1cc(C)c(CN2CCC(Cc3ccccc3)CC2)cc1C | 26.4 µg/mL (≈ 81.6 µM)
52 | CCCCn1c(NCc2ccncc2)nc2ccccc21 | 39.4 µg/mL (≈ 141 µM)
53 | Cc1ccccc1OCCn1cc(C=O)c2ccccc21 | < 0.6 µg/mL
54 | CN1C(=O)NC(c2cccc([N+](=O)[O-])c2)C2=C1CC(C)(C)CC2=O (stereo unspecified) | 34.6 µg/mL (≈ 105 µM)
55 | CCCCNC(=O)N1CCN(C(c2ccccc2)c2ccccc2)CC1 | 5 µg/mL (≈ 14.2 µM)
56 | COc1cc2ccccc2cc1C(=O)Nc1ccc(O)cc1 | 0.8 µg/mL (≈ 2.73 µM)
57 | Cc1cc(C(=O)Nc2ccc(N3CCCCC3)cc2)no1 | 6.8 µg/mL (≈ 23.8 µM)
58 | COc1ccccc1CCC(=O)Oc1ccc(C#N)cc1OC | 9.5 µg/mL (≈ 30.5 µM)
59 | O=C(CCl)c1cc2c3c(c1)CC(=O)N3CCC2 | > 37.5 µg/mL
60 | O=C(/C=C/c1cccc(F)c1)Nc1ccc(S(=O)(=O)N2CCOCC2)cc1 | 1 µg/mL (≈ 2.56 µM)
61 | COCCCNC(=S)Nc1ccc(OC(F)F)cc1C | 45.1 µg/mL (≈ 148 µM)

Source: PubChem BioAssay AID1996
